Results published in US4291021A, “Novel macrolide antibiotics and preparation thereof” (Toyo Jozo Company, Ltd., priority 1978, dated 1981).

Tests used:
[1] = tested on: Micrococcus flavus (ATCC 10240); assay: antibacterial spectrum, agar dilution method; format: cell-based; settings: 10^8 x1
[2] = tested on: Corynebacterium diphtheriae (P.W.8); assay: antibacterial spectrum, agar dilution method; format: cell-based; settings: 10^8 x1
[3] = tested on: Streptococcus faecalis (1501); assay: antibacterial spectrum, agar dilution method; format: cell-based; settings: S. faecalis 1501, 10^8 x1
acidic or basic nature = format: physicochemical
[4] = tested on: Staphylococcus aureus (MS 353 C36); assay: antibacterial spectrum, agar dilution method; format: cell-based; settings: S. aureus MS 353 C36, 10^8 x1
[5] = tested on: Salmonella enteritidis gertner; assay: antibacterial spectrum, agar dilution method; format: cell-based; settings: 10^8 x1
solubility = format: physicochemical
Proteus vulgaris (OX19) = assay: antibacterial spectrum, agar dilution method; format: cell-based; settings: 10^8 x1
Mycoplasma gallisepticum = assay: anti-mycoplasmal spectrum, agar dilution method; format: cell-based; settings: 10^8 x1
[6] = tested on: Staphylococcus aureus (0116); assay: antibacterial spectrum, agar dilution method; format: cell-based; settings: S. aureus 0116, 10^8 x1
[7] = tested on: Sarcina lutea (ATCC 9341); assay: antibacterial spectrum, agar dilution method; format: cell-based; settings: 10^8 x1
[8] = tested on: Staphylococcus epidermidis (s.p.-al-l); assay: antibacterial spectrum, agar dilution method; format: cell-based; settings: 10^8 x1
[9] = tested on: Streptococcus pyogenes (N.Y.5); assay: antibacterial spectrum, agar dilution method; format: cell-based; settings: S. pyogenes N.Y.5, 10^8 x1
Serratia marcescence = assay: antibacterial spectrum, agar dilution method; format: cell-based; settings: 10^8 x1
[10] = tested on: Staphylococcus aureus (ATCC 6538 P); assay: antibacterial spectrum, agar dilution method; format: cell-based; settings: S. aureus ATCC 6538 P, 10^8 x1
[11] = tested on: Staphylococcus aureus (MS 353 AO); assay: antibacterial spectrum, agar dilution method; format: cell-based; settings: S. aureus MS 353 AO, 10^8 x1
[12] = tested on: Klebsiella pneumoniae (ATCC 10031); assay: antibacterial spectrum, agar dilution method; format: cell-based; settings: 10^8 x1
Shigella sonney (E 33) = assay: antibacterial spectrum, agar dilution method; format: cell-based; settings: 10^8 x1
[13] = tested on: Staphylococcus aureus (MS 353); assay: antibacterial spectrum, agar dilution method; format: cell-based; settings: S. aureus MS 353, 10^8 x1
Escherichia coli (B) = assay: antibacterial spectrum, agar dilution method; format: cell-based; settings: E. coli B, 10^8 x1
[14] = tested on: Staphylococcus aureus (0127); assay: antibacterial spectrum, agar dilution method; format: cell-based; settings: S. aureus 0127, 10^8 x1
[15] = tested on: Streptococcus pyogenes (1022); assay: antibacterial spectrum, agar dilution method; format: cell-based; settings: S. pyogenes 1022, 10^8 x1
[16] = tested on: Salmonella typhosa (E 901); assay: antibacterial spectrum, agar dilution method; format: cell-based; settings: 10^8 x1
[17] = tested on: Shigella flexneri type 3a; assay: antibacterial spectrum, agar dilution method; format: cell-based; settings: 10^8 x1
[18] = tested on: Pseudomonas aeruginosa (IAM 1095); assay: antibacterial spectrum, agar dilution method; format: cell-based; settings: 10^8 x1
[19] = tested on: Escherichia coli (NIHJ-JC2); assay: antibacterial spectrum, agar dilution method; format: cell-based; settings: E. coli NIHJ-JC2, 10^8 x1
Mycoplasma synoviae = assay: anti-mycoplasmal spectrum, agar dilution method; format: cell-based; settings: 10^8 x1
[20] = tested on: Bacillus subtilis (ATCC 6633); assay: antibacterial spectrum, agar dilution method; format: cell-based; settings: 10^8 x1
[21] = tested on: Staphylococcus aureus (0119); assay: antibacterial spectrum, agar dilution method; format: cell-based; settings: S. aureus 0119, 10^8 x1
[22] = tested on: Streptococcus agalactiae (1020); assay: antibacterial spectrum, agar dilution method; format: cell-based; settings: S. agalactiae 1020, 10^8 x1

Row | Structure (SMILES) | Minimum growth inhibitory concentration [1] | Minimum growth inhibitory concentration [2] | Minimum growth inhibitory concentration [3] | Acidic or basic nature (acidic or basic nature) | Minimum growth inhibitory concentration [4] | Minimum growth inhibitory concentration [5] | Minimum growth inhibitory concentration (Proteus vulgaris (OX19)) | Minimum growth inhibitory concentration (Mycoplasma gallisepticum) | Minimum growth inhibitory concentration [6] | Minimum growth inhibitory concentration [7] | Minimum growth inhibitory concentration [8] | Minimum growth inhibitory concentration [9] | Minimum growth inhibitory concentration (Serratia marcescence) | Minimum growth inhibitory concentration [10] | Minimum growth inhibitory concentration [11] | Minimum growth inhibitory concentration [12] | Minimum growth inhibitory concentration (Shigella sonney (E 33)) | Minimum growth inhibitory concentration [13] | Minimum growth inhibitory concentration (Escherichia coli (B)) | Minimum growth inhibitory concentration [14] | also measured
1 | CC[C@H]1OC(=O)/C=C/[C@H](C)[C@@H](O[C@@H]2O[C@H](C)C[C@H](N(C)C)[C@H]2O)[C@@H](C)C[C@@H](C)C(=O)/C=C/[C@@H]2O[C@H]2[C@]1(O)CO[C@@H]1O[C@H](C)[C@@H](O)[C@@H](OC)[C@H]1OC [A 11725 II] | 0.2 µg/mL | 0.4 µg/mL | > 100 µg/mL | Basic | 0.1 µg/mL | > 100 µg/mL | 50 µg/mL | 0.03 µg/mL | > 100 µg/mL | ≤ 0.05 µg/mL | 0.1 µg/mL | ≤ 0.05 µg/mL | > 100 µg/mL | 0.2 µg/mL | > 100 µg/mL | 25 µg/mL | > 100 µg/mL | 0.2 µg/mL | 25 µg/mL | > 100 µg/mL | Solubility compared with A 11725 I (solubility; similar to A 11725 I): Similar; Minimum growth inhibitory concentration [15]: > 100 µg/mL; Minimum growth inhibitory concentration [16]: > 100 µg/mL; Minimum growth inhibitory concentration [17]: 50 µg/mL; Minimum growth inhibitory concentration [18]: > 100 µg/mL; Minimum growth inhibitory concentration [19]: > 100 µg/mL; Minimum growth inhibitory concentration (Mycoplasma synoviae): 0.8 µg/mL; Minimum growth inhibitory concentration [20]: 0.4 µg/mL; Minimum growth inhibitory concentration [21]: > 100 µg/mL; Minimum growth inhibitory concentration [22]: 6.3 µg/mL
2 | CC[C@H]1OC(=O)/C=C/[C@H](C)[C@@H](O[C@@H]2O[C@H](C)C[C@H](N(C)C)[C@H]2O)[C@@H](C)C[C@@H](C)C(=O)/C=C/C2OC2[C@@H]1CO[C@@H]1O[C@H](C)[C@@H](O)[C@@H](OC)[C@H]1OC (stereo partly drawn) [A 11725 I] | ≤ 0.05 µg/mL | 0.4 µg/mL | > 100 µg/mL | Basic | ≤ 0.05 µg/mL | > 100 µg/mL | 100 µg/mL | 0.006 µg/mL | > 100 µg/mL | ≤ 0.05 µg/mL | 0.1 µg/mL | ≤ 0.05 µg/mL | > 100 µg/mL | 0.2 µg/mL | > 100 µg/mL | 25 µg/mL | > 100 µg/mL | 0.2 µg/mL | 100 µg/mL | > 100 µg/mL | Solubility in acidic water and organic solvents (solubility; acidic water, methanol, acetone, ethyl acetate, benzene): Soluble; Minimum growth inhibitory concentration [15]: > 100 µg/mL; Minimum growth inhibitory concentration [16]: > 100 µg/mL; Minimum growth inhibitory concentration [17]: 100 µg/mL; Minimum growth inhibitory concentration [18]: > 100 µg/mL; Minimum growth inhibitory concentration [19]: > 100 µg/mL; Minimum growth inhibitory concentration (Mycoplasma synoviae): 0.03 µg/mL; Minimum growth inhibitory concentration [20]: 0.4 µg/mL; Minimum growth inhibitory concentration [21]: > 100 µg/mL; Minimum growth inhibitory concentration [22]: 12.5 µg/mL
